B1: SVAATLGFGAYMSKAHGIDPNIRTGVRTITTGSPITYSTYGKFLADGGCSGGAYDIIICDECHSTDAT (peptide)
chain: SVAATLGFGAYMSKAHGIDPNIRTGVRTITTGSPITYSTYGKFLADGGCSGGAYDIIICDECHSTDAT
B2: GYKVLVLNPSVAATLGFGAYMSKAHGIDPNIRTGVRTITTGSPITYSTYGKFLADGGCSGGAYDIIICDECHSTDAT (peptide)
chain: GYKVLVLNPSVAATLGFGAYMSKAHGIDPNIRTGVRTITTGSPITYSTYGKFLADGGCSGGAYDIIICDECHSTDAT
B3: GYKVLVLNPSVAATLGFGAYMSKAHGIDPNIRTGVRTITTGSPITYSTYGKFLADGGCSGGAYDIIICDECHSTDATSILGIGTVLDQAETAGARLVVLATATPPGSVTVPHPNIEEVAL (peptide)
chain: GYKVLVLNPSVAATLGFGAYMSKAHGIDPNIRTGVRTITTGSPITYSTYGKFLADGGCSGGAYDIIICDECHSTDATSILGIGTVLDQAETAGARLVVLATATPPGSVTVPHPNIEEVAL
B4: TMRSPVFTDNSSPPVVPQSFQVAHLHAPTGSGKSTKVPAAYAAQGYKVLVLNPSVAATLGFGAYMSKAHGIDPNIRTGVRTITTGSPITYSTYGKFLADGGCSGGAYDIIICDECHS (peptide)
chain: TMRSPVFTDNSSPPVVPQSFQVAHLHAPTGSGKSTKVPAAYAAQGYKVLVLNPSVAATLGFGAYMSKAHGIDPNIRTGVRTITTGSPITYSTYGKFLADGGCSGGAYDIIICDECHS
B5: HLHAPTGSGKSTKVPAAYAAQGYKVLVLNPSVAATLGFGAYMSKAHGIDPNIRTGVRTITTGSPITYSTYGKFLADGGCSGGAYDIIICDECHS (peptide)
chain: HLHAPTGSGKSTKVPAAYAAQGYKVLVLNPSVAATLGFGAYMSKAHGIDPNIRTGVRTITTGSPITYSTYGKFLADGGCSGGAYDIIICDECHS
B6: AHGIDPNIRTGVRTITTGSPITYSTYGKFLADGGCSGGAYDIIICDECHSTDATSILGIGTVLDQAETAGARLVVLATATPPGSVTVPHPNIEEVAL (peptide)
chain: AHGIDPNIRTGVRTITTGSPITYSTYGKFLADGGCSGGAYDIIICDECHSTDATSILGIGTVLDQAETAGARLVVLATATPPGSVTVPHPNIEEVAL

Assays:
Type in all cases: binding, human
antibodies to HCV [1] = experiment: Peptide ELISA for relative immunoreactivity, 8 member HCV serum panel (Panel I); settings: NS-3 peptides (Tables 4B-4D), relative to pep3 (279A)
antibodies to HCV [2] = experiment: NS-1 peptide ELISA, Panel II (asymptomatic individuals, mainland China and Taiwan); settings: for % IP: NS-1 peptides, Panel II (CH1-CH7), relative to pep1 (231C)
Description: Wells of 96-well plates were coated for 1 hour at 37° C. with each of the 16 peptides (designated as peptides 241A-C, 231A-E, 232A-D, 233C, 234A-C), synthesized according to sequences derived from the NS-1 region (Table 3A), at 5 ug/mL at 100 uL per well in 10 mM NaHCO3 buffer, pH 9.5. Each peptide's immunoreactivity was measured as previously described (see Example 1), using an 8 member serum panel (Panel I).
A panel of serum samples from individuals coming from regions in which hepatitis C is endemic, namely mainland China and Taiwan, were tested for evidence of reactivity to these NS-1 protein derived peptides. Twenty-four samples were chosen from individuals who had no recognizable symptoms of non-A, non-B hepatitis and for whom the peptide based HCV EIA, Format C, as described in Example 11, was nonreactive. Seven of the 24 samples (29%) were reactive against one or more peptides from the NS-1 region, indicative of the presence of long term protective antibodies responsive to this region. This 7 member panel (designated as Panel II, CH1-CH7) was used to further characterize these NS-1 peptides for their immunoreactivity.
The peptide with the greatest reactivity against the serum Panel II again was pep1 (designated 231c in Table 3A). Using this peptide as a standard, the relative immunoreactivity for each of the other 15 peptides from the NS-1 region are calculated in Table 3A.

antibodies to HCV [3] = experiment: NS-1 peptide ELISA, early and late HCV infection panels
Description: In addition, all sixteen NS-1 peptides were tested on panels of samples representing HCV-antibody positive donors (n=9) in an early stage of infection, namely plasmapheresis donors with the first occurrence of an ALT level >100 i.u./L, and those asymptomatic individuals (n=14) disqualified from blood donation because of a reactive result for anti-HIV or HBc, for whom the anti-HCV result probably represents a past infection.
These select panels were chosen from hundreds of HCV positive sera for their ability to recognize NS-1 antigens. For both groups, peptide designated as 232A (pep2) had the greatest immunoreactivity. Using pep2 as a standard, the relative immunoreactivity of each peptide was calculated (Table 3C).

antibodies to HCV [4] = experiment: Peptide ELISA for relative immunoreactivity, 8 member HCV serum panel (Panel I)
Description: As an example to illustrate how relative (%) immunoreactivity for HCV synthetic peptides is measured, wells of 96-well plates are coated for 1 hour at 37° C., with each of the following peptides: IIH, V, VIIIE and pep11 at 5 ug/mL at 100 uL per well in 10 mM NaHCO3 buffer, pH 9.5. The peptide coated wells were then incubated with 250 uL of 3% by weight of gelatin in PBS in 37° C. for 1 hour to block non-specificprotein binding sites, followed by three washes with PBS containing 0.05% by volume of TWEEN 20 and then dried. The test specimens containing a panel of eight well-characterized HCV antibody positive patient sera were diluted with PBS containing 20% by volume normal goat serum, 1% by weight gelatin and 0.05% by volume TWEEN 20 at dilutions of 1:20 volume to volume, respectively. 200 uL of the diluted specimens were added to each of the wells and allowed to react for 15 minutes at 37° C.
The wells were then washed six times with 0.05% by volume TWEEN 20 in PBS in order to remove unbound antibodies. Horseradish peroxidase conjugated goat anti-human IgG was used as a second antibody tracer to bind with the HCV antibody-peptide antigen complex formed in positive wells. 100 uL of peroxidase labeled goat anti-human IgG at a dilution of 1:1800 in 1% by volume normal goat serum, 0.05% by volume TWEEN 20 in PBS was added to each well and incubated at 37° C. for another 15 minutes.
The wells were washed six times with 0.05% by volume TWEEN 20 PBS to remove unbound antibody and reacted with 100 uL of the substrate mixture containing 0.04% by weight orthophenylenediamine (OPD) and 0.12% by volume hydrogen peroxide in sodium citrate buffer, pH 5.0.
This substrate mixture was used to detect the peroxidase label by forming a colored product. Reactions were stopped by the addition of 100 uL of 1.0M H2 SO4 and the A492 mm measured. Results of relative immunoreactivity for each of the peptides obtained from this study are shown in Table A using peptide II H as the reference.

[5] = Early HCV Infection panel, n = 9
[6] = Late HCV Infection panel, n = 14

| Molecule | % Relative Immunoreactivity (antibodies to HCV [1]) | % IP (antibodies to HCV [2]) | % Relative Immunoreactivity in comparison to Pep2 (232A) (antibodies to HCV [3]; [5]) | % Relative Immunoreactivity in comparison to Pep2 (232A) (antibodies to HCV [3]; [6]) | further results |
| --- | --- | --- | --- | --- | --- |
| AYMSKAHGIDPNIRTGVRTITTGSPITYSTYGKFLADGGCSGGAYDIIICDECHSTDAT [262E] | 3.6% |  |  |  |  |
| CPERLASCRPLTDFDQGWGPISYANGSGPDQRPYCWHYPPKPCGIVPAKSVCGPVYC [231E] |  | 87.6% | 70.9% | 83.4% |  |
| CRPLTDFDQGWGPISYANGSGPDQRPYCWHYPPKPCGIVPAKSVC [241B] |  | 92.9% | 32.7% | 75.0% |  |
| CRPLTDFDQGWGPISYANGSGPDQRPYCWHYPPKPCGIVPAKSVCGPVYC [231D] |  | 65.3% | 23.3% | 43.5% |  |
| DRSGAPTYSWGENDTDVFVLNNTRPPLGNWFGCTWMNSTGFTKVCGAPPC [232D] |  | 25.9% | 50.0% | 46.7% | Absorbance (antibodies to HCV [4]; Panel I sample 4): 785 mA; result with the remaining 7 panel members (antibodies to HCV [4]; Panel I without sample 4): negative |
| EAACNWTRGERCDLEDRDRSELS [234A] |  | 20.5% | 9.5% | 15.7% | A492 nm by EIA (mA) (antibodies to HCV [2]; Panel II sample CH-1): 118 mA; A492 nm by EIA (mA) (antibodies to HCV [2]; Panel II sample CH-2): 232 mA; A492 nm by EIA (mA) (antibodies to HCV [2]; Panel II sample CH-3): 64 mA; A492 nm by EIA (mA) (antibodies to HCV [2]; Panel II sample CH-4): 227 mA; A492 nm by EIA (mA) (antibodies to HCV [2]; Panel II sample CH-5): 206 mA; A492 nm by EIA (mA) (antibodies to HCV [2]; Panel II sample CH-6): 202 mA; A492 nm by EIA (mA) (antibodies to HCV [2]; Panel II sample CH-7): 151 mA |
| EVALSTTGEIPFYGKAIPLEVIKGGRHLIFCHSKKKCDEL [261B] | 3.1% |  |  |  |  |
| FLADGGCSGGAYDIIICDECHSTDATSILGIGTVLDQAETAG [279B] | 3% |  |  |  |  |
| GCSGGAYDIIICDECHSTDATSILGIGTVLDQAETAG [279A] | 100.0% |  |  |  |  |
| LHCPTDCFRKHPDATYSRCGSGPWITPRCLVDYPYRLWHWPC [233C] |  | 16.8% | 9.9% | 17.5% | A492 nm by EIA (mA) (antibodies to HCV [2]; Panel II sample CH-1): 123 mA; A492 nm by EIA (mA) (antibodies to HCV [2]; Panel II sample CH-2): 174 mA; A492 nm by EIA (mA) (antibodies to HCV [2]; Panel II sample CH-3): 72 mA; A492 nm by EIA (mA) (antibodies to HCV [2]; Panel II sample CH-4): 238 mA; A492 nm by EIA (mA) (antibodies to HCV [2]; Panel II sample CH-5): 114 mA; A492 nm by EIA (mA) (antibodies to HCV [2]; Panel II sample CH-6): 175 mA; A492 nm by EIA (mA) (antibodies to HCV [2]; Panel II sample CH-7): 89 mA |
| PNIRTGVRTITTGSPITYSTYGKFLADGGCSGGAYDIIICDECHSTDAT [262D] | 9.3% |  |  |  |  |
| QGWGPISYANGSGPDQRPYCWHYPPKPCGIVPAKSVC [241A] |  | 63.9% | 23.9% | 43.8% |  |
| QGWGPISYANGSGPDQRPYCWHYPPKPCGIVPAKSVCGPVYC [231C] |  | 100.0% | 88.6% | 62.7% | immunopotency index (antibodies to HCV [4]; Panel I, compared with peptide VIIIE): 13.9%; A492 nm by EIA (mA) (antibodies to HCV [2]; Panel II sample CH-1): 2237 mA; A492 nm by EIA (mA) (antibodies to HCV [2]; Panel II sample CH-2): 2472 mA; A492 nm by EIA (mA) (antibodies to HCV [2]; Panel II sample CH-3): 171 mA; A492 nm by EIA (mA) (antibodies to HCV [2]; Panel II sample CH-4): 218 mA; A492 nm by EIA (mA) (antibodies to HCV [2]; Panel II sample CH-5): 311 mA; A492 nm by EIA (mA) (antibodies to HCV [2]; Panel II sample CH-6): 247 mA; A492 nm by EIA (mA) (antibodies to HCV [2]; Panel II sample CH-7): 206 mA |
| RPYCWHYPPKPCGIVPAKSVCGPVYC [231A] |  | 83.2% | 46.8% | 48.4% |  |
| RTITTGSPITYSTYGKFLADGGCSGGAYDIIICDECHS [275A] | 18.2% |  |  |  |  |
| RTITTGSPITYSTYGKFLADGGCSGGAYDIIICDECHSTDATSILGIGTVLDQAETAG [279E] | 2.2% |  |  |  |  |
| SWGENDTDVFVLNNTRPPLGNWFGCTWMNSTGFTKVCGAPPC [232C] |  | 27.9% | 21.7% | 22.0% |  |
| TIFKIRMYVGGVEHRLEAACNWTRGERCDLEDRDRSELS [234C] |  | 8.8% | 12.1% | 44.5% |  |
| TTGSPITYSTYGKFLADGGCSGGAYDIIICDECHSTDAT [262B] | 4.7% |  |  |  |  |
| TVLDQAETAGARLVVLATATPPGSVTVPHPNIEEVAL [274A] | 2.0% |  |  |  |  |
| VFVLNNTRPPLGNWFGCTWMNSTGFTKVCGAPPC [232B] |  | 82.9% | 91.4% | 83.5% |  |
| VGGVEHRLEAACNWTRGERCDLEDRDRSELS [234B] |  | 17.9% | 13.2% | 20.9% |  |
| YGKFLADGGCSGGAYDIIICDECHSTDAT [262A] | 6.9% |  |  |  |  |
| B1 | 4.7% |  |  |  |  |
| B2 | 5.1% |  |  |  |  |
| B3 | 2.8% |  |  |  |  |
| B4 | 5.4% |  |  |  |  |
| B5 | 9.6% |  |  |  |  |
| B6 | 3.9% |  |  |  |  |

Source: patent publication US5747239A, “Synthetic peptides specific for the detection of antibodies to HCV, diagnosis of HCV infection and preventions thereof as vaccines” (United Biomedical, Inc., priority 1994, dated 1998)
